Laboratory results from patent US20260325504A1, “Genetically Engineered Human Pituitary Corticotroph Tumor Organoids Exhibit Divergent Responses to Selective Glucocorticoid Receptor Modulators” (Corcept Therapeutics Incorporated, priority 2022, published 2026).
Entries after “also recorded” stand apart in the source; their conditions may differ. Starred links: 1 amine or outer side, 2 acyl side, 3 side chain; linkers in the order of their positions; H or OH if unused. Non-standard residues stand in square brackets, D forms with d. Residues, ends and D or L forms follow the SMILES beside them. Groups on a side chain read outwards from the residue. *: point of attachment. Ethylenediamine = C(CN[*:2])N[*:1]; Hyp = O=C(O)[C@@H]1C[C@@H](O)CN1; Phg = N[C@H](C(=O)O)c1ccccc1; CO = O=C([*:1])[*:2]; Bn = c1ccc(C*)cc1

How the values were obtained:
iPSC^ctrl organoids [1] = assay: EdU uptake (proliferation) in iPSCctrl organoids; format: cell-based, human; details: 100 nM pretreatment 2 h before mifepristone
Procedure: (§1) iPSCs were stained for pituitary specific hormones including luteinizing hormone (LH), follicle-stimulating hormone (FSH), growth hormone (GH), prolactin (PRL), ACTH, cytokeratin 8/18 (CAM5.2), pituitary transcription factor PIT-1 and neuroendocrine marker Synaptophysin (Table 5). Cultures were immunostained for proliferation marker EdU (Click-IT EdU Alexa Fluor 555 Imaging Kit, Thermo Fisher Scientific C10338). Antibody dilutions were determined based on manufacturer guidelines and antibody titration (Table 5). Staining was conducted according to previously published protocols. Briefly, organoids and iPSCs grown in 8-well glass bottom chamber slides were fixed using 3.7% formaldehyde, washed with DPBS, permeabilized with 0.5% Triton X-100 (SIGMA X-100, PBS-T, 20 min at room temperature), washed with 0.01% PBS-T, and blocked with 2% donkey serum (Jackson Immuno Research 017-000-121) for 1 hour at room temperature. After blocking, primary antibodies were added and incubated overnight at 4° C. Slides were washed with 0.01% PBS-T and incubated with secondary antibodies (Table 5) with Hoechst (Thermo Fisher Scientific H1399) for 1 hour at room temperature. Organoids were washed and stored in PBS at 4° C. until microscopic analysis. High content confocal microscopy was performed using the Nikon Ti2-E Inverted Microscope (with a Crest X-Light V2 L-FOV Spinning Disk Confocal) at the University of Arizona Cancer Center, or a ZEISS LSM880 34 channel Laser Scanning Confocal Microscope at University of Arizona Marley Imaging Core. Fluorescence intensity was quantified as the percentage of marker-positive cells versus total cells, using Nikon Elements Software (Version 5.21.05). Proliferation for each iPSC line was quantified as the percentage of EdU-positive cells versus total cells.
(§2) Sonic Hedgehog (SHH) was withdrawn from the organoid growth media 16 hours prior to treatment. The experimental treatment groups included: vehicle (Veh), mifepristone (500 nM, Selleckchem S2606), GANT61 (5 μM, Stemcell Technologies 73692), ketoconazole (Keto, 10 μM, Selleckchem S1353), pasireotide (Pas, 100 nM, Target Mol TP2207-SB001), octreotide (Oct, 100 nM, Selleckchem P1017), mifepristone plus GANT61, mifepristone plus Keto, mifepristone plus Pas, relacorilant (500 nM, Corcept Therapeutics CORT125134), relacorilant plus Pas, relacorilant plus Oct, or dexamethasone (Dexa, 100 nM, SIGMA S4902). In the combination treatments, cultures were pretreated with the GANT61, Keto, Pas or Oct for 2 hours prior to treatment with mifepristone or Rela. […] The IC50 values used for each hPITO line for each drug were determined based on dose responses (FIG. 12). […]

iPSC^USP48MV organoids [2] = assay: EdU uptake (proliferation) in iPSCUSP48MV organoids; format: cell-based, human; details: 100 nM pretreatment 2 h before mifepristone
Procedure: as §1, §2

iPSC^ctrl organoids [3] = assay: ACTH secretion ELISA, iPSCctrl organoids; format: cell-based, human; details: FIG. 6G
Procedure: (§3) Sonic Hedgehog (SHH) was withdrawn from the organoid growth media 16 hours prior to treatment. The experimental treatment groups included: vehicle (Veh), mifepristone (500 nM, Selleckchem S2606), GANT61 (5 μM, Stemcell Technologies 73692), ketoconazole (Keto, 10 μM, Selleckchem S1353), pasireotide (Pas, 100 nM, Target Mol TP2207-SB001), octreotide (Oct, 100 nM, Selleckchem P1017), mifepristone plus GANT61, mifepristone plus Keto, mifepristone plus Pas, relacorilant (500 nM, Corcept Therapeutics CORT125134), relacorilant plus Pas, relacorilant plus Oct, or dexamethasone (Dexa, 100 nM, SIGMA S4902). In the combination treatments, cultures were pretreated with the GANT61, Keto, Pas or Oct for 2 hours prior to treatment with mifepristone or Rela. PitNET tissue derived organoids hPITO36, hPITO37, hPITO38, hPITO39, and hPITO40 were treated with the following experimental conditions: Vehicle (1), pasireotide (2), relacorilant (3), relacorilant & pasireotide (4), mifepristone (5), mifepristone & pasireotide (6). The IC50 values used for each hPITO line for each drug were determined based on dose responses (FIG. 12). All organoid cultures were treated for 48 hours prior to analysis.
(§4) Organoid conditioned media was collected and ACTH secretion using an ELISA according to the manufacturer's protocol (Novus Biologicals Human ACTH ELISA Kit NBP2-66401). The optical density was measured at a wavelength of 450 nm, and ACTH concentration (pg/mL) was interpolated using a standard curve with a 4-parameter logistic regression analysis using GraphPad Prism (v9.3.1).

iPSC^USP48MV organoids [4] = assay: ACTH secretion ELISA, iPSCUSP48 organoids; format: cell-based, human; details: FIG. 7G
Procedure: as §3, §4

ACTH = assay: Spectral flow cytometry, ACTH positive cells, hPITOs; format: cell-based, human; details: hPITO, pretreatment before mifepristone, FIGS. 9I, J
Description: 1.3 Generation and Culture of Human PitNET Tissue Organoids (hPITOs)
Patients undergoing planned transsphenoidal surgery for PitNETs were identified in the outpatient neuroendocrinology and neurosurgery clinics and collected by the St. Joseph's Hospital and Barrow Neurological Institute Biobank under the collection protocol PHXA-05TS038, and outcomes data protocol PHXA-0004-72-29 with approval of the Institutional Review Board (IRB) and patient consent. De-identified samples were shipped in collection and transport media (Table 3) to the Zavros laboratory (University of Arizona) for processing within 24 hours of collection. Resected PitNET tissues were washed with Dulbeccos Phosphate Buffered Saline (DPBS) supplemented with 1× Penicillin/Streptomycin, 1× Kanamycin and 1× Amphotericin/Gentamycin, minced into smaller pieces, and incubated with digestion buffer (Dulbecco's Modified Eagle Medium/Nutrient Mixture F-12 (DMEM/F12) supplemented with 0.4% Collagenase 2, 0.1% Hyaluronic Acid, 0.03% Trypsin). The tissue was incubated with Accutase (Thermo Fisher Scientific) for a further 5 minutes, and the cells were pelleted and washed with DPBS supplemented with antibiotics. Dissociated cells were then seeded as Matrigel™ domes in culture dishes and overlaid with growth media (Table 4). Media was replaced every 3 days and organoids were harvested for downstream experiments or passaged after 15 days of culture (FIG. 1B).
Sonic Hedgehog (SHH) was withdrawn from the organoid growth media 16 hours prior to treatment. […] The IC50 values used for each hPITO line for each drug were determined based on dose responses (FIG. 12). […]

hPITO37 = assay: Dose response of hPITO37; format: cell-based, human; details: hPITO37, FIG. 12
Procedure: as §3

[5] = test system: patients with Cushing's syndrome; details: pasireotide monotherapy, patients with CD, cited from earlier work
SSTR5 = details: cited from earlier work
[6] = SST14 and SST28; cited from earlier work

Compound | effect on proliferative response to mifepristone (EdU uptake) (iPSC^ctrl organoids [1]) | effect on proliferative response to mifepristone (EdU uptake) (iPSC^USP48MV organoids [2]) | effect on ACTH secretion in response to mifepristone (iPSC^ctrl organoids [3]; 100 nM pretreatment 2 h before mifepristone) | reduction of hormone (ACTH) secretion in combination with relacorilant (iPSC^ctrl organoids [3]; with relacorilant) | effect on ACTH secretion in response to mifepristone (iPSC^USP48MV organoids [4]; iPSCUSP48, 100 nM pretreatment 2 h before mifepristone) | reduction of hormone (ACTH) secretion in combination with relacorilant (iPSC^USP48MV organoids [4]; iPSCUSP48MV, with relacorilant) | effect on mifepristone-induced increase of ACTH expressing cells (ACTH) | drug response (sensitivity) (hPITO37) | patients with normalized cortisol [5] | patients with normalized urinary free cortisol ([5]; two large prospective studies) | binding to / activation of SSTR5 (SSTR5) | half-life [6] [min]
NCCCC[C@@H]1NC(=O)[C@@H](Cc2c[nH]c3ccccc23)NC(=O)[C@H](c2ccccc2)NC(=O)[C@@H]2C[C@@H](OC(=O)NCCN)CN2C(=O)[C@H](Cc2ccccc2)NC(=O)[C@H](Cc2ccc(OCc3ccccc3)cc2)NC1=O [pasireotide] (cyclo([Hyp]([CO-Ethylenediamine])[Phg][dW]KY(Bn)F)) | no effect | no effect | significantly reduced ACTH secretion | greater magnitude compared to that of octreotide plus relacorilant | significantly reduced ACTH secretion | greater magnitude compared to that of octreotide plus relacorilant | not inhibited | insensitive | up to 42% | up to 42% | high-affinity binding to SSTR5; also recorded: preferentially binds or activates somatostatin receptor type 5 (SSTR5) | 
SST |  |  |  |  |  |  |  |  |  |  |  | < 3
